Source: patent publication US20090233342A1, “HETEROLOGOUS EXPRESSION OF PROTEORHODOPSIN PHOTOSYSTEM” (priority 2007, published 2009)

Tests used:
PR^+ E. coli cells = assay type: cell-based, Escherichia coli; conditions: for effect on photophosphorylation (light-driven ATP synthesis, ΔATP light minus dark): PR^+ HF10—19P19 cells, CCCP 25 μM (2 h dark preincubation), DCCD 1 mM (20 h dark preincubation)
HF10—19P19 cells = experiment: Proton-pumping assay (light-driven pH change of cell suspension); assay type: cell-based, Escherichia coli; conditions: PR^+ HF10—19P19 cells; CCCP 25 μM (2 h dark preincubation), DCCD 1 mM (20 h dark preincubation)
Method: FIG. 3. Light-activated, PR-enabled photophosphorylation in E. coli. (A) Diagram of the proposed mechanism of PR-dependent ATP synthesis. The effects of the inhibitors used are indicated. (B) Proton-pumping assays with HF10—19P19 cells. pH measurements are expressed as the pH change respect to the pH at time 0 for each sample. CCCP, 25 μM; DCCD, 1 mM. Gray boxes indicate dark periods. (C) ATP assays with HF10—19P19 cells. Results are expressed as the difference between the ATP level in the light and the ATP level in the dark, ΔATP, for each treatment.
Fosmid Library. The HOT—10m fosmid library screened in this work has been described previously (14). It contains DNA from a planktonic sample collected 10 m below the surface at the ALOHA station (22°45′ N, 158°W) of the Hawaii Ocean Time series (HOT) cloned into the copy-controlled pCC1FOS fosmid vector (Epicentre Biotechnologies, Madison, Wis.). The library host, E. coli EPI300 (Epicentre Biotechnologies), supports the copy-control option of pCC1FOS. Screening for PR Expression. High-density colony macroarrays [12,280 clones of the HOT—10m library (ref. 14)] were prepared on a Performa II filter (Genetix Ltd., Boston, Mass.) by using a Q-PixII robot (Genetix Ltd.). […] The color phenotype of individual Tn5-insertion clones was analyzed on LB plates containing chloramphenicol, kanamycin, and 0.02% L-arabinose as above. […]

SMILES | effect on photophosphorylation (light-driven ATP synthesis, ΔATP light minus dark) (PR^+ E. coli cells) | effect on light-driven decrease in pH (PR-catalyzed proton translocation) (HF10—19P19 cells) | net gain of ATP by oxidative phosphorylation (PR^+ E. coli cells; 5 min after addition of 0.2% succinate to PR^+ cells in the dark, data not shown)
C(=NC1CCCCC1)=NC1CCCCC1 [DCCD, N,N′-dicyclohexylcarbodiimide] | completely abolished | did not affect | –
N#CC(C#N)=NNc1cccc(Cl)c1 [CCCP, carbonylcyanide m-chlorophenylhydrazone] | completely abolished | completely abolished | –
O=C(O)CCC(=O)O [succinate] | – | – | 9×10^5 ATP molecules per live cell
